Data reported in patent US20150034084A1, “[…] NITRIC OXIDE FOR TREATING RESPIRATORY DISEASES” (Advanced Inhalation Therapies (AIT) Ltd., priority 2012, published 2015).
Read-outs that look alike come from different tables or passages of the source.

Experiments:
[1] = continuous delivery of 80 ppm gNO; cited from earlier work
P. aeruginosa (ATCC) = details: 200 ppm gNO, saline; cited from earlier work
[2] = Phase I safety study: hematology, clinical chemistry, coagulation; assay type: in vivo, human
Method: (§1) After obtaining informed consent, treatment was initiated within 5 days of enrollment. Subjects were housed in a hospital ward and received 160 ppm gNO for 30 minutes every four hours (Q4h), five times a day, for five consecutive days by inhalation. Subjects returned for follow-up evaluations 3, 7 and 21 days after the final gNO administration. Subject safety was determined by monitoring vital signs, methemoglobin levels, lung function, blood chemistry, hematology, prothrombin time, inflammatory cytokine/chemokines levels and endothelial activation. These parameters were compared to baseline and at various time-points during and after gNO administration.
Hematological assessment included a complete blood count and differentials (hemoglobin, hematocrit, red blood cell count, white blood cell count, white blood cell differential, and platelet count) were obtained in order to monitor blood chemistry, hematology and inflammation measurements. The blood chemistry profile included serum creatinine, and liver function tests such as aspartate aminotransferase (AST) serum glutamic oxaloacetic transaminase (SGOT), alkaline phosphatase, and gamma-glutamyl transferase (GGT). The effect of gNO on coagulation was determined by the prothrombin time (PT) and its derived measures of prothrombin ratio (PR) and international normalized ratio (INR). Heparinized plasma was collected at baseline and on days 1, 2, 4, and 5 of gNO administration, and on follow-up days 3, 7 and 21 and frozen at −80° C. Plasma cytokine levels were assessed using the human inflammation cytokine bead array kit (BD Bioscience, Canada). Plasma levels of angiopoietin Ang-1 and Ang-2 were determined by ELISA (R&D Systems, USA).

[3] = test system: bovine respiratory disease; details: intermittent 30 minute exposures of gNO, cattle; cited from earlier work
MRSA = details: 200 ppm gNO, saline; cited from earlier work
Serracia sp. = details: 200 ppm gNO, saline; cited from earlier work
Enterobacter sp. = details: 200 ppm gNO, saline; cited from earlier work
[4] = rats, cited from earlier work
[5] = Phase I safety study: inspiratory NO2 level during gNO delivery; design: species or system human; details: inspired gas at mouthpiece
Method: Subjects were administered gNO through a modified disposable mouthpiece to maximize mixing. Inspiration was spontaneously initiated by the subject from a conventional intermittent positive pressure breathing respirator (Mark-7, Carefusion, USA) in fixed flow mode delivering 48 liters per minute (LPM). Flows of gas were verified with a calibrated mass flow meter (TSI, USA). Gaseous nitric oxide (gNO, obtained at INOmax, Ikaria, USA) at a concentration of 800 ppm delivered at a flow of 12 LPM was titrated into a distal delivery port on the mouth piece connected to the respirator during inspiratory phase only (pressure switch). The Mark 7 respirator was supplied by an air/oxygen blender (Bird Sentry, Carefusion, USA) set to deliver 26% oxygen.
The levels of gNO, NO2, O2 and methemoglobin were monitored during the administration of gNO. The target gas mixture was 160 ppm gNO with a nitrogen dioxide (NO2) level of less than 5 ppm and an oxygen (O2) level ranging from 21% to 25%. Inspiratory NO, NO2 and O2 levels were continuously monitored by sampling from the mouthpiece sample port located about 6 millimeters from the mouth of the subject with an AeroNOx (Pulmonox, AB, Canada) NO, NO2 and O2 electrochemical analyzer. Delivery safety was determined by the number of occasions that NO2 exceeded 5 ppm, gNO exceeding 10% variation and O2 dropping below 20% during gNO administration. […]

[6] = test system: chronic, non-healing wound; details: topical 200 ppm gNO, cited from earlier work
Group B Streptococci = details: 200 ppm gNO, saline; cited from earlier work
Klebsiella sp.#1 = details: 200 ppm gNO, saline; cited from earlier work
S. aureus (Clinical) = details: 200 ppm gNO, saline; cited from earlier work
[7] = test system: all microorganisms tested; details: 200 ppm gNO, cited from earlier work
[8] = Phase I safety study: serum nitrite/nitrate by Griess reagent; assay type: in vivo, human; details: during the trial, 160 ppm gNO
Method: as §1
These parameters were measured continuously during every gNO administration course and for 3.5 hours after the first treatment of the day. Daily serum samples were collected and frozen at −80° C. and the serum […] level was measured using the Griess reagent.

MRSA biofilm = details: 200 ppm gNO for eight hours (1,600 ppm hours); cited from earlier work
Mycobacterium = details: 200 ppm gNO, saline; cited from earlier work
[9] = in vivo; cited from earlier work
Klebsiella sp.#3 = details: 200 ppm gNO, saline; cited from earlier work
Pseudomonas aeruginosa = details: 160 ppm gNO, intermittent 30 minute exposures, rat; cited from earlier work

[N]=O [gNO, nitric oxide]
NO2 level [1]: 2.6 ppm
increase of SpMet levels [1]: at least 5%
subjects exceeding 7% SpMet [1]: 35%
LD100 (P. aeruginosa (ATCC)): 3 h
Latent Period (P. aeruginosa (ATCC)): 1 h
−2.5 Log10 (P. aeruginosa (ATCC)): 2.1 hours
eosinophil cell numbers, end of study ([2]; baseline 0.15 giga/L, p=0.104): 0.19 giga/L
blood coagulation parameters, clinical chemistry and hematological parameters ([2]; baseline to completion of day 5): no statistically, nor clinically significant changes
neutrophil cell numbers, end of study ([2]; baseline value of zero, p=0.169): 0.01 giga/L
clinical symptoms of bovine respiratory disease [3]: decrease the clinical symptoms
LD100 (MRSA): 5 h
Latent Period (MRSA): 3 h
−2.5 Log10 (MRSA): 4.2 hours
LD100 (Serracia sp.): 6 h
Latent Period (Serracia sp.): 4 h
−2.5 Log10 (Serracia sp.): 4.9 hours
LD100 (Enterobacter sp.): 6 h
Latent Period (Enterobacter sp.): 4 h
−2.5 Log10 (Enterobacter sp.): 5.3 hours
mortality ([4]; 300 ppm gNO, groups of 10, first 1-2 days): Six of the animals
mortality ([4]; 400 ppm gNO, 6 hours per day): all of the animals died on the first day
MetHb level ([4]; 400 ppm gNO): 72.5 percents
mortality ([4]; 500 ppm gNO, 6 hours per day): all of the animals died on the first day
MetHb level ([4]; 500 ppm gNO): 67 percents
highest NO2 level recorded during the treatments ([5]; 160 ppm gNO): 2.8 ppm
mean NO2 level ([5]; 95% confidence level 2.17-2.47 ppm): 2.32 ppm
reduction of wound size ([6]; at one week): 42%
biofilm on wound ([6]; within the first three days of treatment): no longer visibly present
LD100 (Group B Streptococci): 2 h
Latent Period (Group B Streptococci): 1 h
−2.5 Log10 (Group B Streptococci): 1.5 hours
LD100 (Klebsiella sp.#1): 6 h
Latent Period (Klebsiella sp.#1): 3 h
−2.5 Log10 (Klebsiella sp.#1): 3.5 hours
LD100 (S. aureus (Clinical)): 4 h
Latent Period (S. aureus (Clinical)): 3 h
−2.5 Log10 (S. aureus (Clinical)): 3.7 hours
bactericidal effect [7]: complete bactericidal effect on all microorganisms tested
reduction in CFU/mL ([7]; every bacteria challenged): ≥ 3 log10
serum nitrite/nitrate levels versus baseline [8]: no significant differences
MRSA in biofilm (MRSA biofilm): shown to reduce MRSA
LD100 (Mycobacterium): 10 h
Latent Period (Mycobacterium): 7 h
−2.5 Log10 (Mycobacterium): 9.2 hours
half-life in the body [9]: less than 6 seconds
nitrate excreted in the urine, share of the nitric oxide dose inhaled [9]: more than 70%
LD100 (Klebsiella sp.#3): 6 h
Latent Period (Klebsiella sp.#3): 3 h
−2.5 Log10 (Klebsiella sp.#3): 5.1 hours
pulmonary bioburden and leukocyte infiltration (Pseudomonas aeruginosa): effective to reduce the pulmonary bioburden and leukocyte infiltration
